Experimental data taken from PubChem BioAssay AID2305 (GlaxoSmithKline (GSK), 2010).

System: P. falciparum 3D7 growth, pLDH absorbance
Assay: blood-stage malaria parasite growth potency – strain 3D7, dose response (AID 2305)

Row | SMILES | IC50 [nM]
1 | O=C(Cc1ccc(NC(=O)c2ccc(O)c(-c3ccc(Cl)c(Cl)c3)c2)cc1)NCc1cccc(C(F)(F)F)c1 | 880
2 | COc1ccc(NC(=O)CSc2nc(-c3ccccc3Cl)ns2)cc1 | 1040
3 | NC(N)=NCCN(Cc1ccccc1)c1ccc(Cl)cc1 | 50
4 | CCCOc1ccc(C(=O)Nc2nonc2-c2ccc(OC)c(OC)c2)cc1 | 990
5 | CS(=O)(=O)c1ccc2nc(-c3cc(-c4ccc(OCCN5CCOCC5)cc4)cnc3N)[nH]c2c1 | 1060
6 | COc1ccc(-n2nc(C)cc2C(=O)NCc2ccc(-c3c(C)noc3C)cc2)cc1 | 980
7 | Cc1cccc2[nH]c(-c3cccc(-c4ccc(NC(=O)C(C)CN5CCN(C)CC5)cc4)c3)nc12 (stereo not given) | 180
8 | COc1cc2nc(C)nc(Nc3ccc4c(ccn4Cc4ccccc4)c3)c2cc1OC | 560
9 | Cc1cccc2[nH]c(-c3ccc(-c4cccc(NC(=O)c5cnccc5C(F)(F)F)c4)cc3)nc12 | 1000
10 | COc1ccc(-c2ccc(NC(=O)c3cccc(F)c3)cc2)cc1CNC(C)C | 810
11 | CCOc1cc(C(=O)NCc2cccc(C(F)(F)F)c2)ccc1-c1nc2ccc(Cl)cc2[nH]1 | 980
12 | CCCCN(C(=O)c1ccccc1C)c1nnc(-c2ccccc2C)s1 | 930
13 | O=C(NCCN1CCOCC1)c1ccc(-c2ccc(CNCCCc3ccccc3)cc2)nc1 | 780
14 | CCCNC(=O)c1cncc(-c2cccc(CNC3Cc4ccccc4C3)c2)c1 | 800
15 | Cn1c(O)c(N=NC(=S)N2CCOCC2)c2ccccc21 | 900
16 | CCCCCN(C(=O)Nc1cc(C(F)(F)F)cc(C(F)(F)F)c1)C(C)c1nc2ccccc2c(=O)n1CC (stereo not given) | 790
17 | CC(C)(C)CC(C)(C)c1ccc(O)c(C(=O)Nc2cccc([N+](=O)[O-])c2)c1 | 590
18 | CCN1CCN(CCCNc2ccnc3cc(Cl)ccc23)CC1 | 70
19 | CN(c1ccc(NC(=O)Nc2cc(C(F)(F)F)ccc2F)cc1)c1ccnc(NCCN2CCCC2)n1 | 1150
20 | Cc1ccc(F)cc1-c1cc(N2CCCN(C(=O)c3ccc(Br)o3)CC2)ncn1 | 1430
21 | Cc1nc(N)nc(N)c1-c1ccc(Cl)cc1 | 770
22 | CCCCNCc1ccc(-c2nc(CN(CCCn3ccnc3)C(=O)Nc3ccc(CC)cc3)cs2)cc1 | 830
23 | O=C(Nc1cccc(CN2CCCN(Cc3ccc4c(c3)OCO4)CC2)c1)c1ccc2ccccc2c1 | 1050
24 | O=C(Nc1ccc(Cl)cc1F)NC1CCN(CCCCCNC(=O)[C@@H]2C[C@H]2c2ccc(Cl)c(Cl)c2)CC1 | 510

Row | SMILES | IC50 [nM]
25 | O=C(NC(=O)c1ccccc1O)c1ccccc1O | 700
26 | Cc1cccc(-c2nn(-c3ccccc3)c3[nH]c(=O)c(CNC4CCCC4)cc23)c1 | 760
27 | CC[C@H]1CN2CC[C@H]1C[C@H]2[C@H](O)c1cc(N2CCC3CCCCC3C2)nc2ccc(OC)cc12 (stereo not given in full) | 170
28 | CCN(CC)CCN(Cc1ccc(-c2ccc(C(F)(F)F)cc2)cc1)C(=O)Cn1c(CCc2c(F)ccc(F)c2F)nc(=O)c2ccccc21 | 240
29 | O=C(Nc1ccc(I)cc1)Nc1ccc(Cn2ncc(N3CCCNCC3)c(Cl)c2=O)cc1 | 1120
30 | OC(CNCc1ccccc1Oc1ccccc1)c1cc(Br)cs1 (stereo not given) | 1110
31 | O=C(CCC1CCCCC1=O)c1ccccc1 (stereo not given) | 770
32 | Cc1cc(C)c(-c2n[nH]c3c2C(c2cccc(Cl)c2)N(Cc2ccco2)C3=O)c(O)c1 (stereo not given) | 1010
33 | Cc1cn(CC(=O)Nc2cccc(-c3cccc(-c4nc5c(C)cccc5[nH]4)c3)c2)c(=O)[nH]c1=O | 580
34 | CCCc1cc(N2CCC(N(CC)CC)C2)nc(Nc2ccc(OC)cc2)n1 (stereo not given) | 170
35 | COc1cc2c(c(OC)c1OC)C[C@H]1c3c(cc4c(c3-2)OCO4)CCN1C | 970
36 | Cc1cccc2[nH]c(-c3ccc(-c4ccc(NC(=O)Nc5ccc(Cl)cc5)cc4)s3)nc12 | 150
37 | Clc1ccc(CNc2nc(NCCc3cnc[nH]3)nc(NC3CCCCC3)n2)cc1 | 210
38 | Nc1nnc(-c2ccc(Cl)c(Br)c2)c(N)n1 | 1040
39 | O=[N+]([O-])c1ccc(-n2nc(Cc3ccccc3)n(Cc3cccc(F)c3)c2=S)c(C(F)(F)F)c1 | 770
40 | Cc1cc(N[C@@H](Cc2ccccc2)C(=O)NCc2cccc(F)c2)nc(NCCc2ccccc2)n1 | 1020
41 | CC[C@H](NC(=O)c1c(CN2CCC(N3CCCCC3)CC2)c(-c2ccccc2)nc2c(Cl)c(O)ccc12)c1ccccc1 | 730
42 | CCCCCCCNc1cc(C)nc2ccc(OC)cc12 | 670
43 | COc1ccc2nc(C)cc(NN=Cc3ccccc3[N+](=O)[O-])c2c1 | 180
44 | Fc1cc(Cl)ccc1Nc1ccnc2cc(-c3ccc(CN4CCCCC4)o3)ccc12 | 340
45 | O=C(Nc1ccc(OC2CCN(Cc3ccc(F)cc3)C2)cc1)c1cccs1 (stereo not given) | 640
46 | Cc1cccc2[nH]c(-c3ccc(-c4cccc(CNCC5CCCO5)c4)cc3)nc12 (stereo not given) | 700
47 | COc1ccc2c(NN=Cc3cccc(F)c3)cc(C)nc2c1 | 780
48 | Cn1c(NC(=O)c2ccc(CNC(=O)c3ccc(O)c(-c4ccc(Cl)c(Cl)c4)c3)cc2)nc2ccccc21 | 840

Row | SMILES | IC50 [nM]
49 | O=C(Nc1cccc(C(F)(F)F)c1)Nc1ccc(F)c([N+](=O)[O-])c1 | 700
50 | c1csc(-c2nc(NCC3CCCO3)ncc2-c2ccsc2)n1 (stereo not given) | 490
51 | Cc1cc(NN=Cc2cccc(Cl)c2)c2ccccc2n1 | 260
52 | Cc1ccc(C(=O)Nc2cc(C(F)(F)F)cc(C(F)(F)F)c2)cc1[N+](=O)[O-] | 930
53 | Cc1ccccc1C1CCN(C2CCC(NC(=O)c3ccc(-c4cccs4)s3)CC2)CC1 (stereo not given) | 1030
54 | Cc1ccc(NC(=O)c2ccc(NCCCN(C)Cc3ccccc3)c([N+](=O)[O-])c2)cc1F | 700
55 | CS(=O)(=O)c1cccc(-c2cnc3[nH]cc(-c4ccc(C(=O)O)cc4)c3c2)c1 | 340
56 | N#Cc1cccc(Nc2ncc3c(-c4cccc(NC(=O)Cc5cccc(Cl)c5)c4)c[nH]c3n2)c1 | 420
57 | O=C(NC1CC1)c1ccc(N2CCC(Oc3ccc(F)cc3)CC2)nc1 | 1090
58 | CCOC(=O)c1cn(CC)c2cc(N3CCCCCC3)c(F)cc2c1=O | 410
59 | c1ccc(CNCc2ccc(-c3ccc(-c4nc5ccccc5[nH]4)cc3)cc2)cc1 | 340
60 | COc1ccc(C2CC(=O)C3=C(C2)NC(C)=C(C(=O)OC2CCCC2)C3c2cccc(O)c2)cc1OC (stereo not given) | 220
61 | O=C(NCCCCCN1CCC(c2c[nH]c3ccccc23)CC1)Nc1ccc(I)c(Cl)c1 | 970
62 | OCC1CCN(Cc2cccc(-c3ccc(-c4nc5ccc(C(F)(F)F)cc5[nH]4)cc3)c2)CC1 | 660
63 | CC(C)(C)c1ccc(/C=C/C(=O)NCCCCCN2CCC(c3c[nH]c4ccccc34)CC2)cc1 | 1090
64 | CCc1cn2c3c(cc(C(=O)N[C@@H](Cc4ccccc4)[C@H](O)CNC4CCOCC4)cc13)N(C)S(=O)(=O)C2 | 90
65 | O=C(/C=C/c1ccc(Cl)c(Cl)c1)N1CCC(CN2CCC(c3c(-c4ccccc4)[nH]c4ccccc34)CC2)CC1 | 340
66 | COc1ccc(CNCc2ccc(-c3ccc(-c4nc5ccccc5[nH]4)cc3)cc2)cc1 | 240
67 | CCCCCCN1CCCN(Cc2cccc(C(=O)Nc3ccc(C(C)(C)C)cc3)c2)CC1 | 940
68 | COc1ccc2oc(=O)c(C#N)c(O)c2c1 | 210
69 | COc1cccc(CNC(=O)c2cccc(-c3cccc(CN4CCC(N5CCCC5)CC4)c3)n2)c1 | 1030
70 | CCOc1ccc(NC(=O)c2ccc(NCCCN3CC(C)CC(C)C3)c([N+](=O)[O-])c2)cc1 (stereo not given) | 710
71 | COCCN1CCC(N(CC2(O)CCN(c3ccc(C(F)(F)F)cc3)CC2)C(=O)Cn2c(SCc3cccc(F)c3F)cc(=O)c3ccccc32)CC1 | 810
72 | CCC1CN2CCc3c([nH]c4ccc(OC)cc34)[C@@H]2C[C@@H]1CC1NCCc2cc(OC)c(OC)cc21 (stereo not given in full) | 860

Row | SMILES | IC50 [nM]
73 | Oc1ccc(CCNc2nc(NCCCOc3cccc(CN4CCCCC4)c3Cl)nc(N3CCNCC3)n2)cc1 | 1370
74 | CCNc1cc(C)nc(Nc2ccc(NC(=O)c3c(F)cccc3Cl)cc2)n1 | 1120
75 | CC(Cc1ccc(OCCN2CCN(c3cccc(Cl)c3)CC2)cc1)NCC(O)c1cccc(C(F)(F)F)c1 (stereo not given) | 600
76 | COc1cc2nc(NCc3ccc(S(N)(=O)=O)cc3)nc(Nc3ccc(Oc4ccccc4)cc3)c2cc1OC | 440
77 | COc1cc(Cc2cnc(N)nc2N)cc(OCc2cccc(C(=O)O)c2)c1OC | 830
78 | CCCCC(=O)Nc1ccc(Nc2nc(C)cc(N3CCCC3)n2)cc1 | 1060
79 | CN(C)Cc1cccc2[nH]c(-c3csc(Cc4cc(Cl)ccc4OCc4ccccc4)n3)nc12 | 1120
80 | CS(=O)(=O)N(c1ccccc1)c1cc(C(=O)N[C@@H](Cc2ccccc2)[C@H](O)CNC2CCCCC2)cc(N2CCCC2=O)c1 | 80
81 | CCCCN1CCN(c2cc(NS(=O)(=O)c3cccc(C(=O)Nc4ccc(C(F)(F)F)cc4)c3)ccc2OC)CC1 | 690
82 | CCOC(=O)c1ccc(NC(=O)Nc2cccc(-c3ccc(-c4nc5ccc(F)cc5[nH]4)cc3)c2)cc1 | 90
83 | OCCN1CCN(Cc2ccc(-c3cccc(-c4nc5ccc(C(F)(F)F)cc5[nH]4)c3)cc2)CC1 | 640
84 | O=C(Nc1cccc(C(F)(F)F)c1)c1cccc(S(=O)(=O)NCC2CCCN(Cc3ccccc3)C2)c1 (stereo not given) | 1100
85 | CN(C)CCNC(=O)c1ccc2c(c1)ncn2-c1cc(OCc2ccccc2C(F)(F)F)c(C(N)=O)s1 (tested in a mixture with another compound) | 810
86 | COc1ccc2nccc([C@@H](O)CN3CCC(NC(=O)C(=O)c4c[nH]c5c(C)cccc45)CC3)c2c1 | 310
87 | Cc1ccc2c(=O)cc(CCc3cccc(F)c3F)n(CC(=O)N(Cc3ccc(-c4ccc(C(F)(F)F)cc4)cc3)C3CCN(C(C)C)CC3)c2n1 | 780
88 | Cc1cc(-c2nc3ccc(C(=O)NCc4ccccc4)cc3n2C2CCN(C(=O)c3ccc(-c4ccccc4)cc3)CC2)ccn1 | 900
89 | CCOC(=O)CNCC(=O)c1ccc(OCc2ccccc2)cc1 | 160
90 | COc1ccc2c(c1)CC(NCc1ccc(-c3ccc4nc[nH]c4c3)cc1)C2 (stereo not given) | 880
91 | COCCN1CCC(N(Cc2ccc(-c3ccc(C(F)(F)F)cc3)cc2)C(=O)Cn2c(CCc3cccc(F)c3F)cc(=O)c3c2CCC3)CC1 | 1320
92 | COc1ccc(-n2cc(CNCCCn3ccnc3)c(-c3cccc(F)c3)n2)cc1 | 1060
93 | CCn1ccc2c(N3CCCS3(=O)=O)cc(C(=O)N[C@@H](Cc3ccccc3)[C@H](O)CNC3CCCCC3)cc21 | 140
94 | COCCNCc1cccc(-c2ccc(CN(C(=O)NC3CCCCC3)C3CCN(Cc4ccccc4)CC3)cc2)c1 | 760
95 | N#Cc1cccc(-c2nc(NCc3cccc(C(F)(F)F)c3)nn2-c2cccc(C(F)(F)F)c2)c1 | 590
